Assay results as given in patent publication US7482008B1, “Human T cell reactive feline protein (TRFP) isolated from house dust and uses therefor” (Merck Patent GmbH, priority 1989, dated 2009).
“And” between values parts separate entries of the source, which are not always exact repeats. Equal values may be shown once.

How the values were obtained:
[1] = system: BDF1 mice preimmunized with TRFP; test: ELISA of specific IgG binding of mouse sera to TRFP before and after tolerization; type: in vivo
Method: BDF1 mice were each immunized with 100 μg TRFP in 200 μl IFA (Incomplete Freund's Adjuvant) in a single site intraperitoneally. After four months, the mice were bled and grouped according to their anti-TRFP IgG antibody levels as follows. The mice were warmed with an infra-red lamp and bled through one of the tail veins by nicking the vein with a razor blade (Gilette Platinum Plus). The blood was allowed to drip into a serum separating tube (Microtainer, Becton-Dickenson) and allowed to clot. The sera was then separated from the clot by centrifugation at 13,000 rpm. The sera was stored at −20° C. until use. The sera was assayed for TRFP-specific IgG by ELISA. For the IgG assay, immunoaffinity purified TRFP was coated onto Nunc Polysorp 96-well plates by incubation of 50 μl/well of 2 μg/ml TRFP in PBS. Unless mentioned, each incubation step in this protocol was performed for 1 hour at 37° C. After rinsing with PBS, the wells were incubated with 0.5% gelatin in PBS to block excess binding to the plate. The plates were rinsed with PBS containing 0.05% Tween 20. […] After rinsing, the bound mouse antibody was detected by incubation with biotinylated goat anti-mouse IgG (Southern Biotechnology Associates) diluted 1/10000 in PBS. The plates were rinsed and streptavidin conjugated to horse radish peroxidase (Southern Bio. Ass.) diluted 1/10000 was added for 20 minutes and incubated at room temperature. TMB peroxidase substrate (Kirkegaard and Perry) was used according to directions supplied. The resulting O.D. values were read by an ELISA reader (Bio-Tek modal #310) at 450 nm to quantitate the complexes bound to TRFP protein on the plates. The mice were matched for O.D. of the developed ELISA wells using the 1/500 dilution of each sera and separated into two matched groups of three animals. The range of the values for the TRFP specific IgG of 1/500 dilution sera from these animals was between 1.7 and 2.2. […]

[2] = system: Balb/c mice; test: Oral rChain 1, antibody response ELISA, protocol 2; type: in vivo, mouse
Method: Four groups of five age-matched Balb/c 6- to 10-week-old female mice (The Jackson Laboratory, Bar Harbor, Me.) were fed on days −7, −5 and −2 with 250 μg cleaved, purified, recombinant TRFP Chain 1 (rChain) (Groups 1 and 3) or with PBS (Groups 2 and 4). On day 0, the mice in Groups 1 and 2 were challenged with an intraperitoneal (i.p.) injection of 10 μg rChain 1 in alum, while the mice in Groups 3 and 4 were challenged on day 0 with an i.p. injection of 100 μg rChain 1 in CFA. […]
Subsequent incubations were for 1 hour at 37° C. The wells were washed with PBS containing 0.05% Tween 20 and blocked with 0.5% gelatin in PBS. Sera were diluted in PBS as noted in the individual assay and were incubated in triplicate on the washed plates. After incubation and washing, the bound mouse antibody was detected by incubation with biotinylated goat anti-mouse IgG (Southern Biotechnology Ass.). […] 3,3′,5,5′-Tetramethylbenzidine peroxidase substrate (Kirkegaard & Perry Labs) was used according to directions supplied, and resulting OD (450 nm) values were determined using an ELISA reader (Bio-Tek model 310, Winooski, Vt.). […]
(§1) Antigen-bound IgE was detected similarly except using a biotinylated rat monoclonal antibody specific for mouse IgE (Baniyash et al. (1984) Eur. J. Immunol. 14:799-807). […]

[3] = system: Balb/c mice; test: Oral rChain 1, IgG and IgE response after repeated challenge, protocol 5; type: in vivo, mouse; conditions: oral 250 μg days -7, -5, -2
Method: Two groups of five age-matched Balb/c were fed on days −7, −5 and −2 with 250 μg rChain 1 (Group 1) or PBS (Group 2). On day 0, the mice were challenged with 10 μg rChain 1 on alum administered i.p., and on days 47 and 78, the mice were again challenged with 25 μg rChain 1 on alum administered i.p. The antibody response was measured by ELISA (see below).
Subsequent incubations were for 1 hour at 37° C. The wells were washed with PBS containing 0.05% Tween 20 and blocked with 0.5% gelatin in PBS. Sera were diluted in PBS as noted in the individual assay and were incubated in triplicate on the washed plates. After incubation and washing, the bound mouse antibody was detected by incubation with biotinylated goat anti-mouse IgG (Southern Biotechnology Ass.). Streptavidin conjugated to horseradish peroxidase (Southern Biotechnology Associates) was added to detect antigen-bound biotinylated antibody complexes. 3,3′,5,5′-Tetramethylbenzidine peroxidase substrate (Kirkegaard & Perry Labs) was used according to directions supplied, and resulting OD (450 nm) values were determined using an ELISA reader (Bio-Tek model 310, Winooski, Vt.). […]
as §1

[4] = specific IgG binding to TRFP, 1/4500 dilution of sera, individual mice #1-#3

Substance | quantity of antibody specific for TRFP ([1]; 20 days following tolerization) | ELISA O.D.-sera sampled after “tolerization and challenge [1, 4] | ELISA O.D.-sera sampled before “tolerization” and challenge [1, 4] | IgE binding to rChain 1 ([2]; 92 days after challenge, compared to PBS) | IgG response to rChain 1 ([2]; oral administration, up to 100 days after treatment) | specific IgG and IgE responses after repeated challenge with rChain 1 in alum [3]
peptide Y: amino acid residues 29-55 from chain 1 of TRFP (SEQ. ID. NO: 18) (KALPVVLENARILKNCVDAKMTEEDKE) | no significant change | 0.492 and 0.654 and 0.585 | 0.670 and 0.687 and 0.686 | – | – | –
recombinant chain 1: recombinant TRFP chain 1 expressed in E. coli | – | – | – | less IgE binding to rChain 1 | depressed level of IgG response | decreases specific IgG and IgE responses
